Measured values as given in EP4741394A1, “CRYSTAL FORM OF [1,2,4]TRIAZOLO[4,3-B]PYRIDAZINE COMPOUND, AND PREPARATION METHOD THEREFOR AND USE THEREOF” (Beijing Pearl Biotechnology Limited Liability Company, priority 2023, dated 2025).
Blank lines part the entries; values can stand above or below the compound they belong to.

Legend:
Assay type in all cases: physicochemical
[1] = Solid dispersion by hot-melt extrusion with Povidone K30: content of related substance D1 and of active ingredient; details: for Content of related substance D1 in starting material: before hot-melt extrusion, Not detected: detected content < 0.0045%; for Content of active pharmaceutical ingredient in sample / Content of related substance D1 in sample: solid dispersion, Povidone K30 1:3, hot-melt extrusion up to 200 °C
Text: Under the same hot-melt extrusion conditions, the contents of related substance D1 in the solid dispersions prepared from the crystal forms A (prepared according to the preparation method 1 of Example 1) and B (prepared according to the preparation method of Example 2) were investigated, respectively. The structure of the related substance D1 is represented by formula (II). [drawing 4]
Preparation of solid dispersion by hot-melt extrusion: the active pharmaceutical ingredient of crystal form A (prepared according to the preparation method 1 of Example 1) or B (prepared according to the method of Example 2) and Povidone K30 were weighed respectively and then evenly mixed at a ratio of 1:3; after the temperature of each temperature zone for hot-melt […] reached 130 °C, 150 °C, 180 °C, 195 °C, 200 °C, 200 °C, 200 °C, and 200 °C and balanced for 15 min, the mixture was added to the hopper of an extruder; and the resulting solids were collected and left to cool at room temperature, and then tested for the content of the related substance D1, respectively. Table 3: Results of Prepared Samples of Crystal Forms A and B
Not detected: the detected content of related substance D1 was < 0.0045%.

[2] = Stability of crystal forms in aqueous medium at 37 °C (XRPD of solids from 5 mg/mL suspension); details: for XRPD: 37 °C; for crystal form transformation: 24 hours
Experimental: (§1) The crystal form of the samples was analyzed using a Bruker D8 ADVANCE or Bruker D8 Focus X-ray powder diffractometer. The samples were scanned with the 2θ scanning angle of 3° to 42°, the scanning step of 0.02°, and the scanning time of 0.05 s or 0.1 s or 0.2 s per step. The voltage and current for fluorescent tubes were 40 kV and 40 mA, respectively. During sample preparation, an appropriate amount of samples were placed on a sample tray and flattened with a glass sheet or other tools to ensure a smooth and flat surface.
Table 2: Results of Stability of Crystal Forms A and B in Aqueous Medium at 37 °C

[3] = Thermal and moisture stability of crystal forms (HPLC and XRPD after storage in a stability test chamber); details: for degradation: under the test conditions of Table 1; for crystal form change (overlay of XRPD forms): under the test conditions, FIGS. 15 and 16
Experimental: as §1
Solubility and stability tests were carried out using Agilient 1260 HPLC under the following conditions: column: ZORBAX Eclipse Plus Cl8 4.6* 100 mm 3.5-Micron; flow rate: 1 mL/min; column temperature: 35 °C; injection volume: 10 µL; mobile phases: mobile phase A: 0.02 mol/L potassium dihydrogen phosphate, and mobile phase B: ACN; running time: 40 min; detector: UV at 210 nm; diluent: ACN; and injection concentration: 0.2 mg/mL.
A certain amount of samples of the crystal forms A (prepared according to the preparation method 1 of Example 1) and B (prepared according to the method of Example 2) of the compound of formula (I) were placed into a stability test chamber, and taken out for HPLC and XRPD testing after a certain period of time.
Test conditions were as follows: under open conditions at 25 °C with 60% RH (25 °C/60% RH) or at 40 °C with 75% RH (40 °C/75% RH), HPLC and XRPD was characterized after one week, two weeks, 1 month and 2 months respectively; and HPLC and XRPD were characterized under closed conditions at 80 °C for one day and under closed conditions with lighting for 10 days, respectively. Table 1: Results of Stability of Crystal Forms A and B

[4] = Hygroscopic weight gain test
Experimental: On Days 0, 20 and 25, the samples were set out respectively, with the temperature and humidity conditions controlled to 25 ± 2 °C/75 ± 5% RH and 25 ± 2 °C/90 ± 5% RH. All samples were sampled and weighed on Day 30 to calculate the hygroscopic weight gain (%).

[5] = Impact of drying conditions on crystal form stability (XRPD); details: wet samples dried at 40 °C or 60 °C under vacuum, or under nitrogen at room temperature or 40 °C; 0 h to 48 h
Experimental: as §1

[6] = FeSSIF, 24 h (first FeSSIF line)
[7] = FeSSIF, 24 h (second FeSSIF line)

Content of related substance D1 in starting material [1]: Not detected | Content of active pharmaceutical ingredient in sample [1]: 101.6% | Content of related substance D1 in sample [1]: 0.08% | XRPD ([2]; FaSSIF, 24 h): Unchanged | XRPD [2, 6]: Unchanged | XRPD [2, 7]: Unchanged | XRPD ([2]; Water, 24 h): Crystal form B | crystal form transformation ([2]; buffers of different pHs and water): transformed to the crystal form B | XRPD ([2]; pH 1.2 buffer, 24 h): Crystal form B | XRPD ([2]; pH 3.0 buffer, 24 h): Crystal form B | XRPD ([2]; pH 4.5 buffer, 24 h): Crystal form B | XRPD ([2]; pH 6.8 buffer, 24 h): Crystal form B | XRPD ([2]; pH 7.4 buffer, 24 h): Crystal form B | crystal form transformation ([2]; simulated biological media): without crystal form transformation | Degradation (%) ([3]; 25 °C/60% RH, open, 1 month): 0% | Purity (%) ([3]; 25 °C/60% RH, open, 1 month): 99.98% | XRPD ([3]; 25 °C/60% RH, open, 1 month): Unchanged | Degradation (%) ([3]; 25 °C/60% RH, open, 1 week): 0% | Purity (%) ([3]; 25 °C/60% RH, open, 1 week): 99.98% | XRPD ([3]; 25 °C/60% RH, open, 1 week): Unchanged | Degradation (%) ([3]; 25 °C/60% RH, open, 2 months): 0% | Purity (%) ([3]; 25 °C/60% RH, open, 2 months): 99.98% | XRPD ([3]; 25 °C/60% RH, open, 2 months): Unchanged | Degradation (%) ([3]; 25 °C/60% RH, open, 2 weeks): 0% | Purity (%) ([3]; 25 °C/60% RH, open, 2 weeks): 99.98% | XRPD ([3]; 25 °C/60% RH, open, 2 weeks): Unchanged | Degradation (%) ([3]; 40 °C/75% RH, open, 1 month): 0% | Purity (%) ([3]; 40 °C/75% RH, open, 1 month): 99.98% | XRPD ([3]; 40 °C/75% RH, open, 1 month): Unchanged | Degradation (%) ([3]; 40 °C/75% RH, open, 1 week): 0.01% | Purity (%) ([3]; 40 °C/75% RH, open, 1 week): 99.97% | XRPD ([3]; 40 °C/75% RH, open, 1 week): Unchanged | Degradation (%) ([3]; 40 °C/75% RH, open, 2 months): 0.01% | Purity (%) ([3]; 40 °C/75% RH, open, 2 months): 99.97% | XRPD ([3]; 40 °C/75% RH, open, 2 months): Unchanged | Degradation (%) ([3]; 40 °C/75% RH, open, 2 weeks): 0% | Purity (%) ([3]; 40 °C/75% RH, open, 2 weeks): 99.98% | XRPD ([3]; 40 °C/75% RH, open, 2 weeks): Unchanged | Degradation (%) ([3]; 80 °C, closed, 1 d): 0% | Purity (%) ([3]; 80 °C, closed, 1 d): 99.98% | XRPD ([3]; 80 °C, closed, 1 d): Unchanged | Degradation (%) ([3]; Lighting control, 10 d): 0% | Purity (%) ([3]; Lighting control, 10 d): 99.98% | XRPD ([3]; Lighting control, 10 d): Unchanged | Degradation (%) ([3]; Lighting, closed, 10 d): 0% | Purity (%) ([3]; Lighting, closed, 10 d): 99.98% | XRPD ([3]; Lighting, closed, 10 d): Unchanged | Purity (%) ([3]; Start): 99.98% | degradation [3]: almost no degradation | crystal form change (overlay of XRPD forms) [3]: have not changed
Structure (SMILES): Cn1cc2cc(C(F)(F)c3nnc4ccc(-c5cnn(C6CC6)c5)nn34)c(F)cc2n1 [Crystal form A]

Hygroscopic weight gain (%) ([4]; 25 + 2°C/90 + 5% RH, 5 days): 1% | Hygroscopic weight gain (%) ([4]; 25 + 2°C/90 + 5% RH, 10 days): 1% | Hygroscopic weight gain (%) ([4]; 25 + 2°C/90 + 5% RH, 30 days): 1% | Hygroscopic weight gain (%) ([4]; 25 ± 2°C/75 + 5% RH, 5 days): 1% | Hygroscopic weight gain (%) ([4]; 25 ± 2°C/75 + 5% RH, 10 days): 1% | Hygroscopic weight gain (%) ([4]; 25 ± 2°C/75 + 5% RH, 30 days): 1% | hygroscopic weight gain ([4]; high humidity conditions for 5 days, 10 days and 30 days (text summary; less than 2%, slight hygroscopicity)): approximately 1% | Content of related substance D1 in starting material [1]: Not detected | Content of active pharmaceutical ingredient in sample [1]: 101.8% | Content of related substance D1 in sample [1]: 0.05% | XRPD ([2]; FaSSIF, 24 h): Unchanged | XRPD [2, 6]: Unchanged | XRPD [2, 7]: Unchanged | XRPD ([2]; Water, 24 h): Unchanged | crystal form change ([2]; all media): no change | XRPD ([2]; pH 1.2 buffer, 24 h): Unchanged | XRPD ([2]; pH 3.0 buffer, 24 h): Unchanged | XRPD ([2]; pH 4.5 buffer, 24 h): Unchanged | XRPD ([2]; pH 6.8 buffer, 24 h): Unchanged | XRPD ([2]; pH 7.4 buffer, 24 h): Unchanged | Degradation (%) ([3]; 25 °C/60% RH, open, 1 month): 0% | Purity (%) ([3]; 25 °C/60% RH, open, 1 month): 99.98% | XRPD ([3]; 25 °C/60% RH, open, 1 month): Unchanged | Degradation (%) ([3]; 25 °C/60% RH, open, 1 week): 0% | Purity (%) ([3]; 25 °C/60% RH, open, 1 week): 99.98% | XRPD ([3]; 25 °C/60% RH, open, 1 week): Unchanged | Degradation (%) ([3]; 25 °C/60% RH, open, 2 months): 0.01% | Purity (%) ([3]; 25 °C/60% RH, open, 2 months): 99.97% | XRPD ([3]; 25 °C/60% RH, open, 2 months): Unchanged | Degradation (%) ([3]; 25 °C/60% RH, open, 2 weeks): 0% | Purity (%) ([3]; 25 °C/60% RH, open, 2 weeks): 99.98% | XRPD ([3]; 25 °C/60% RH, open, 2 weeks): Unchanged | Degradation (%) ([3]; 40 °C/75% RH, open, 1 month): 0% | Purity (%) ([3]; 40 °C/75% RH, open, 1 month): 99.98% | XRPD ([3]; 40 °C/75% RH, open, 1 month): Unchanged | Degradation (%) ([3]; 40 °C/75% RH, open, 1 week): 0.01% | Purity (%) ([3]; 40 °C/75% RH, open, 1 week): 99.97% | XRPD ([3]; 40 °C/75% RH, open, 1 week): Unchanged | Degradation (%) ([3]; 40 °C/75% RH, open, 2 months): 0.02% | Purity (%) ([3]; 40 °C/75% RH, open, 2 months): 99.96% | XRPD ([3]; 40 °C/75% RH, open, 2 months): Unchanged | Degradation (%) ([3]; 40 °C/75% RH, open, 2 weeks): -0.01% | Purity (%) ([3]; 40 °C/75% RH, open, 2 weeks): 99.99% | XRPD ([3]; 40 °C/75% RH, open, 2 weeks): Unchanged | Degradation (%) ([3]; 80 °C, closed, 1 d): 0.01% | Purity (%) ([3]; 80 °C, closed, 1 d): 99.97% | XRPD ([3]; 80 °C, closed, 1 d): Unchanged | Degradation (%) ([3]; Lighting control, 10 d): 0% | Purity (%) ([3]; Lighting control, 10 d): 99.98% | XRPD ([3]; Lighting control, 10 d): Unchanged | Degradation (%) ([3]; Lighting, closed, 10 d): 0% | Purity (%) ([3]; Lighting, closed, 10 d): 99.98% | XRPD ([3]; Lighting, closed, 10 d): Unchanged | Purity (%) ([3]; Start): 99.98% | degradation [3]: almost no degradation | crystal form change (overlay of XRPD forms) [3]: have not changed
Structure (SMILES): Cn1cc2cc(C(F)(F)c3nnc4ccc(-c5cnn(C6CC6)c5)nn34)c(F)cc2n1 [Crystal form B]
crystal form during drying (XRPD) [5]: no other crystal forms appear during drying
